Values of other authors as cited in patent US20070185067A1, “Ciclesonide and glycopyrronium combination” (Altana Pharma AG, priority 2004, published 2007).

Columns and labels:
[1] = not given; remark: listed apart in the source
[2] = compared with budesonide

Compound: CC(C)C(=O)OCC(=O)[C@@]12O[C@H](C3CCCCC3)O[C@@H]1C[C@H]1[C@@H]3CCC4=CC(=O)C=C[C@]4(C)[C@H]3[C@@H](O)C[C@@]12C [Ciclesonide, [11β,16α(R)]-16,17-[(Cyclohexylmethylen)bis(oxy)]-11-hydroxy-21-(2-methyl-1-oxo-prop-oxy)pregna-1,4-dien-3,20-dion]
- metabolism by liver oxidases (liver oxidases): very high
- concentration of the drug in the lungs (lungs): high
- absorption after oral administration (oral administration): only moderately absorbed
- plasma half-life (plasma): low plasma half-life
- systemic activity relative to budesonide ([1]; compared with budesonide): three times lower than that of budesonide
- systemic activity ([1]; in vivo): low systemic activity
- anti-inflammatory activity relative to budesonide [2]: higher
